Assays:
Assay type in all cases: in vivo, male Wistar rats (Rat Rattus)
[1] = tested on: Iron deficient Diet (IDD) induced anaemia in rats; test: Hb level in IDD induced anaemia in rats; parameters: Hemoglobin % Change compared to Disease control: concentration or dose not given beside the values; conditions: for Hemoglobin Pre-treatment: Day 35, before treatment; for Hemoglobin Pre-treatment / Hemoglobin Post-treatment / Hemoglobin % Change compared to Disease control: IDD rats; for Hemoglobin Post-treatment: Day 98, after 9 weeks of treatment p.o.; for Hemoglobin % Change compared to Disease control: Day 98
Description: (§1) Screening of pharmaceutical composition/formulation comprising combination of Lactoferrin+Guanosine Nucleotide or a pharmaceutically acceptable salt thereof with or without optional ingredients against Iron deficient Diet (IDD) induced anaemia in rats. For this study different parameters like Hb Level, Hematocrit level, Serum Iron level, Ferroportin level, Serum Ferritin level, Hepcidin level and IL-6 Level were evaluated. The following trials were carried out by taking reference from Wang Xl, Liu S, Xu H, Yan W, Effects of recombinant human lactoferrin on improving the iron status of IDA. Wei Sheng Yan Jiu.
(§2) 72 male Wistar rats (Rat Rattus) (6 per group) were maintained in animal house in a light/dark atmosphere based on a 12 hour cycle having temperature and relative humidity in the range of 22±3° C. and 30-70% respectively. To maintain the appropriate conditions, temperature and relative humidity were recorded three times daily. All animals were acclimatized for a minimum period of five days. Animals were maintained in the test setup for minimum 30 minutes once during the acclimatization period to reduce the stress. Animals were weighed on the day of receipt and observed daily for abnormalities if any. Detailed records of acclimatization were also maintained. Rats were housed 6 per cage in clean, sterilized Polypropylene cages. During complete experiment, animals were supplied with the standard certified rat pellet feed (manufactured by Keval sales corporation, Vadodara) and drinking water treated by the reverse osmosis ad libitum. Analysis reports for microbial load and contaminants in feed and water and nutrient content of feed were also retained.
(§3) In order to evaluate the activity against IDD induced anaemia, seventy two (72) rats were screened and divided in to twelve groups. For a comparative analysis, groups were divided as normal control (Group 1), disease control (Group 2), treatment groups with individual components (Group 3, Group 4, Group 5, Group 6 and Group 7 as Lactoferrin, Disodium Guanosine monophosphate (GMP), Guanosine diphosphate (GDP), Guanosine triphosphate (GTP) and Vitamin C respectively), test composition/formulation of the present invention (Group 8 as combination of Lactoferrin Disodium GMP, Group 9 as combination of Lactoferrin GDP, Group 10 as combination of Lactoferrin+GTP, […] as combination of Lactoferrin+Disodium GMP+Vitamin C) and reference standard drug (Group 12). Table 1 provides the details of the various groups and treatments conducted in the trial wherein group no. G3 to G12 are treatment groups.
After 3 weeks of respective dietary intervention, the level of Hemoglobin was determined in each animal.
(§4) After 5 weeks (35 days) of respective dietary intervention, once again hemoglobin level, HCT % level and serum iron level were analyzed and then, respective drug treatment was started with continuous administration of Iron deficient diets in all groups as mentioned above in Table 1.
(§5) After 9 weeks of respective drug treatment (total after 14 weeks from start of the study—98 days), various biochemical parameters were measured to evaluate the effect of respective individual and combination therapy on iron deficient anaemia model (G3 to G12).
(§6) • A. Clinical observations (Daily) • B. Mortality (Daily) • C. Body weight (Initially and then weekly till the end of study) • D. After 3 and 5 weeks of Iron deficient diet supplement • (i) Hematological parameters (RBC count, Hb Level, Hematocrit % MCV, MCH and MCHC). • (ii) Serum Iron Level. • E. At the end of 14 weeks of study • (i) Hematological parameters (RBC count, Hb Level, Hematocrit %, MCV, MCH and MCHC). • (ii) Biochemical parameters (Serum Iron level, Ferroportin level, Serum Ferritin level, Hepcidin level, IL-6 level).

[2] = tested on: Iron deficient Diet (IDD) induced anaemia in rats; test: Hematocrit % level in IDD induced anaemia in rats; parameters: Hematocrit % Change compared to Disease control: concentration or dose not given beside the values; conditions: for Hematocrit Pre-treatment: Day 35, before treatment; for Hematocrit Pre-treatment / Hematocrit Post-treatment / Hematocrit % Change compared to Disease control: IDD rats; for Hematocrit Post-treatment: Day 98, after 9 weeks of treatment p.o.; for Hematocrit % Change compared to Disease control: Day 98
Description: as §1, with “Jiu. 2012 January; 41(1):13-7, 22 and Nora M. El-Sheikh, the Protective Effect of Soybean and Thyme on Iron Deficiency Anemia in Rats, the Egyptian Journal of Hospital Medicine (2008) Vol., 33: 510-520 as available.” for “Jiu.”
as §2, §3
(§7) Group nos. 2 to 12 animals under consideration were administered IDD (3 mg Fe/Kg of diet) for the period of 3 weeks, while group 1 animal received Normal pellet diet (35 mg Fe/Kg of diet).
(§8) After 3 weeks of respective dietary intervention, the level of Hemoglobin was determined in each animal. Looking at low increase in hemoglobin. Hematocrit % (HCT %) level and serum iron level, further dietary intervention was continued for additional two (2) weeks.
as §4, §5
(§9) • A. Clinical observations (Daily) • B. Mortality (Daily) • C. […]

[3] = tested on: Iron deficient Diet (IDD) induced anaemia in rats; test: Serum iron level in IDD induced anaemia in rats; parameters: Serum IRON % Change compared to Disease control: concentration or dose not given beside the values; conditions: for Serum IRON Pre-treatment: Day 35, before treatment; for Serum IRON Pre-treatment / Serum IRON Post-treatment / Serum IRON % Change compared to Disease control: IDD rats; for Serum IRON Post-treatment: Day 98, after 9 weeks of treatment p.o.; for Serum IRON % Change compared to Disease control: Day 98
Description: as §1, with “Jiu. 2012 January; 41(1):13-7, 22 and Nora M. El-Sheikh, the Protective Effect of Soybean and Thyme on Iron Deficiency Anemia in Rats, the Egyptian Journal of Hospital Medicine (2008) Vol., 33: 510-520 as available.” for “Jiu.”
as §2, §3, §7, §8, §4, §5, §9

[4] = tested on: Iron deficient Diet (IDD) induced anaemia in rats; test: Ferroportin level in IDD induced anaemia in rats; parameters: Ferroportin % Change compared to Disease control: concentration or dose not given beside the values; conditions: for Ferroportin Post-treatment: Day 98, after 9 weeks of treatment p.o.; for Ferroportin Post-treatment / Ferroportin % Change compared to Disease control: IDD rats; for Ferroportin % Change compared to Disease control: Day 98
Description: as §1, with “Jiu. 2012 January; 41(1):13-7, 22 and Nora M. El-Sheikh, the Protective Effect of Soybean and Thyme on Iron Deficiency Anemia in Rats, the Egyptian Journal of Hospital Medicine (2008) Vol., 33: 510-520 as available.” for “Jiu.”
as §2, §3, §7, §4, §5, §9

[5] = tested on: Iron deficient Diet (IDD) induced anaemia in rats; test: Serum ferritin level in IDD induced anaemia in rats; parameters: Ferritin % Change compared to Disease control: concentration or dose not given beside the values; conditions: for Ferritin Post-treatment: Day 98, after 9 weeks of treatment p.o.; for Ferritin Post-treatment / Ferritin % Change compared to Disease control: IDD rats; for Ferritin % Change compared to Disease control: Day 98
Description: as §1, with “Jiu. 2012 January; 41(1):13-7, 22 and Nora M. El-Sheikh, the Protective Effect of Soybean and Thyme on Iron Deficiency Anemia in Rats, the Egyptian Journal of Hospital Medicine (2008) Vol., 33: 510-520 as available.” for “Jiu.”
as §2, §3, §7, §4, §5, §9

[6] = tested on: Iron deficient Diet (IDD) induced anaemia in rats; test: Hepcidin level in IDD induced anaemia in rats; parameters: Hepcidin % Change compared to Disease control: concentration or dose not given beside the values; conditions: for Hepcidin Post-treatment: Day 98, after 9 weeks of treatment p.o.; for Hepcidin Post-treatment / Hepcidin % Change compared to Disease control: IDD rats; for Hepcidin % Change compared to Disease control: Day 98
Description: as §1, with “Jiu. 2012 January; 41(1):13-7, 22 and Nora M. El-Sheikh, the Protective Effect of Soybean and Thyme on Iron Deficiency Anemia in Rats, the Egyptian Journal of Hospital Medicine (2008) Vol., 33: 510-520 as available.” for “Jiu.”
as §2, §3, §7, §4, §5, §9

[7] = tested on: Iron deficient Diet (IDD) induced anaemia in rats; test: IL-6 level in IDD induced anaemia in rats; conditions: for IL-6 Post-treatment: Day 98, after 9 weeks of treatment p.o.; for IL-6 Post-treatment / IL-6 % Change compared to Disease control: IDD rats; for IL-6 % Change compared to Disease control: Day 98
Description: as §1, §2, §3, §4, §5
as §6, with “level). Statistical Analysis: One way ANOVA followed by Tuckey's test was performed and p value<0.05 is considered to be statistically significant. […] Hematology: (after 3 Weeks and 5 Weeks of Feed Intervention and after 9 Weeks of Treatment)” for “level).”

[8] = rats on iron deficient diet, after treatment for 9 weeks, compared to disease control group (G2)
[9] = rats on iron deficient diet, after treatment of 9 weeks, compared to disease control group (G2)

Nc1nc2c(ncn2[C@@H]2O[C@H](COP(=O)([O-])[O-])[C@@H](O)[C@H]2O)c(=O)[nH]1.[Na+].[Na+] [Disodiurn GMP]
Hemoglobin Pre-treatment [1]: 8.54 g/dL
Hemoglobin Post-treatment [1]: 9.18 g/dL
Hemoglobin % Change compared to Disease control [1]: 40.8%
Hematocrit Pre-treatment [2]: 35.35%
Hematocrit Post-treatment [2]: 38.89%
Hematocrit % Change compared to Disease control [2]: 51.3%
Serum IRON Pre-treatment [3]: 2.82 ppm
Serum IRON Post-treatment [3]: 3.43 ppm
Serum IRON % Change compared to Disease control [3]: 28.8%

Nc1nc2c(ncn2[C@@H]2O[C@H](COP(=O)(O)OP(=O)(O)OP(=O)(O)O)[C@@H](O)[C@H]2O)c(=O)[nH]1 [GTP, Guanosine triphosphate]
Hemoglobin Pre-treatment [1]: 8.45 g/dL
Hemoglobin Post-treatment [1]: 9.12 g/dL
Hemoglobin % Change compared to Disease control [1]: 39.9%
Hematocrit Pre-treatment [2]: 35.74%
Hematocrit Post-treatment [2]: 37.96%
Hematocrit % Change compared to Disease control [2]: 11.7%
Serum IRON Pre-treatment [3]: 3.03 ppm
Serum IRON Post-treatment [3]: 3.98 ppm
Serum IRON % Change compared to Disease control [3]: 49.2%
Ferroportin Post-treatment [4]: 3.0 ng/mL
Ferroportin % Change compared to Disease control [4]: 9.5%
Ferritin Post-treatment [5]: 698 ng/mL
Ferritin % Change compared to Disease control [5]: −5.7%
Hepcidin Post-treatment [6]: 4392 ng/mL
Hepcidin % Change compared to Disease control [6]: −0.2%
IL-6 Post-treatment [7]: 62.2 pg/mL
IL-6 % Change compared to Disease control [7]: −0.2%

Vit C
Hemoglobin Pre-treatment [1]: 8.28 g/dL
Hemoglobin Post-treatment [1]: 9.22 g/dL
Hemoglobin % Change compared to Disease control [1]: 41.5%
Hematocrit Pre-treatment [2]: 35.64%
Hematocrit Post-treatment [2]: 37.24%
Hematocrit % Change compared to Disease control [2]: 44.9%
Serum IRON Pre-treatment [3]: 2.76 ppm
Serum IRON Post-treatment [3]: 3.54 ppm
Serum IRON % Change compared to Disease control [3]: 32.7%
Ferroportin Post-treatment [4]: 3.1 ng/mL
Ferroportin % Change compared to Disease control [4]: 12.9%
Ferritin Post-treatment [5]: 689 ng/mL
Ferritin % Change compared to Disease control [5]: −6.9%
Hepcidin Post-treatment [6]: 4267 ng/mL
Hepcidin % Change compared to Disease control [6]: −3.0%
IL-6 Post-treatment [7]: 63.4 pg/mL
IL-6 % Change compared to Disease control [7]: 1.6%

O=S(=O)([O-])[O-].[Fe+2] [FeSO4, ferrous sulphate, reference compound]
Hemoglobin Pre-treatment [1]: 8.71 g/dL
Hemoglobin Post-treatment [1]: 15.2 g/dL
Hemoglobin % Change compared to Disease control [1]: 134.0%
Hb level [1, 8]: significant increment
Hematocrit Pre-treatment [2]: 35.10%
Hematocrit Post-treatment [2]: 47.22%
Hematocrit % Change compared to Disease control [2]: 83.7%
% Hematocrit level [2, 8]: significant increment
Serum IRON Pre-treatment [3]: 2.43 ppm
Serum IRON Post-treatment [3]: 9.84 ppm
Serum IRON % Change compared to Disease control [3]: 269.2%
Serum Iron level [3, 8]: significant increase
Ferroportin Post-treatment [4]: 3.0 ng/mL
Ferroportin % Change compared to Disease control [4]: 12.5%
Ferroportin level [4, 9]: no significant change
Ferritin Post-treatment [5]: 720 ng/mL
Ferritin % Change compared to Disease control [5]: −2.7%
Serum Ferritin level [5, 9]: no significant change
Hepcidin Post-treatment [6]: 4260 ng/mL
Hepcidin % Change compared to Disease control [6]: −3.2%
Hepcidin level [6, 9]: no significant change
IL-6 Post-treatment [7]: 60.4 pg/mL
IL-6 % Change compared to Disease control [7]: −3.2%
IL-6 level [7, 9]: no significant change

Nc1nc2c(ncn2[C@@H]2O[C@H](COP(=O)([O-])[O-])[C@@H](O)[C@H]2O)c(=O)[nH]1.[Na+].[Na+] [Disodium GMP, Disodium Guanosine 5-Monophosphate]
Ferroportin Post-treatment [4]: 3.0 ng/mL
Ferroportin % Change compared to Disease control [4]: 11.4%
Ferritin Post-treatment [5]: 700 ng/mL
Ferritin % Change compared to Disease control [5]: −5.4%
Hepcidin Post-treatment [6]: 4303 ng/mL
Hepcidin % Change compared to Disease control [6]: −2.2%
IL-6 Post-treatment [7]: 62.9 pg/mL
IL-6 % Change compared to Disease control [7]: 0.9%

Nc1nc2c(ncn2[C@@H]2O[C@H](COP(=O)(O)OP(=O)(O)O)[C@@H](O)[C@H]2O)c(=O)[nH]1 [GDP, Guanosine diphosphate]
Hemoglobin Pre-treatment [1]: 8.62 g/dL
Hemoglobin Post-treatment [1]: 9.34 g/dL
Hemoglobin % Change compared to Disease control [1]: 43.4%
Hematocrit Pre-treatment [2]: 35.61%
Hematocrit Post-treatment [2]: 37.77%
Hematocrit % Change compared to Disease control [2]: 46.9%
Serum IRON Pre-treatment [3]: 3.30 ppm
Serum IRON Post-treatment [3]: 3.99 ppm
Serum IRON % Change compared to Disease control [3]: 49.7%
Ferroportin Post-treatment [4]: 3.0 ng/mL
Ferroportin % Change compared to Disease control [4]: 11.1%
Ferritin Post-treatment [5]: 702 ng/mL
Ferritin % Change compared to Disease control [5]: −5.1%
Hepcidin Post-treatment [6]: 4351 ng/mL
Hepcidin % Change compared to Disease control [6]: −1.1%
IL-6 Post-treatment [7]: 62.2 pg/mL
IL-6 % Change compared to Disease control [7]: −0.3%

— patent US12016906B2, “Pharmaceutical composition for anaemia” (Frimline Private Limited, priority 2018, dated 2024)
